Type in all cases: functional
Assay [1] concerns PC-3. The assay can be described thus: Cell cycle arrest in human p53-null PC3 cells assessed as accumulation at G2/M phase at 300 nM (reference value: 18.37 to 18.96%).
Assay [2] relates to T47D. Kind of assay: Cell cycle arrest in human T47D cells assessed as accumulation at S phase at 300 nM (reference value: 19.89 to 24.55%).
Assay [3] concerns A2780. Kind of assay: Cell cycle arrest in human A2780 cells assessed as accumulation at G1 phase at 300 nM (reference value: 55.26 to 55.66%).
For assay [4], the system named is A2780. Kind of assay: Cell cycle arrest in human A2780 cells assessed as accumulation at G2/M phase at 300 nM (reference value: 19.42 to 20.43%).
The subject of assay [5] is MFE-280. Kind of assay: Cell cycle arrest in human MFE280 cells assessed as accumulation at G2/M phase at 300 nM (reference value: 16.43 to 17.9%).
Assay [6] relates to A2780. The assay can be described thus: Cell cycle arrest in human A2780 cells assessed as accumulation at S phase at 300 nM (reference value: 21.16 to 22.81%).
The test system of assay [7] is PC-3. Kind of assay: Cell cycle arrest in human p53-null PC3 cells assessed as accumulation at G1 phase at 300 nM (reference value: 50.77 to 51.16%).
Assay [8] deals with MCF7. The assay can be described thus: Cell cycle arrest in human MCF7 cells assessed as accumulation at S phase at 300 nM (reference value: 25.36 to 26.82%).
For assay [9], the system named is T47D. Kind of assay: Cell cycle arrest in human T47D cells assessed as accumulation at G1 phase at 300 nM (reference value: 45.5 to 57.8%).
For assay [10], the system named is T47D. Kind of assay: Cell cycle arrest in human T47D cells assessed as accumulation at G2/M phase at 300 nM (reference value: 20.58 to 28.8%).
Assay [11] concerns MFE-280. Kind of assay: Cell cycle arrest in human MFE280 cells assessed as accumulation at S phase at 300 nM (reference value: 14.14 to 15.66%).
Assay [12] deals with MFE-296. Kind of assay: Cell cycle arrest in human MFE296 cells assessed as accumulation at G1 phase at 300 nM (reference value: 61.05 to 64.87%).
In assay [13] the test system is PC-3. Kind of assay: Cell cycle arrest in human p53-null PC3 cells assessed as accumulation at S phase at 300 nM (reference value: 29.08 to 29.33%).
In assay [14] the test system is MCF7. The assay can be described thus: Cell cycle arrest in human MCF7 cells assessed as accumulation at G2/M phase at 300 nM (reference value: 20.06 to 22.33%).
The test system of assay [15] is MFE-296. Kind of assay: Cell cycle arrest in human MFE296 cells assessed as accumulation at G2/M phase at 300 nM (reference value: 15.71 to 17.04%).
In assay [16] the test system is MFE-280. The assay can be described thus: Cell cycle arrest in human MFE280 cells assessed as accumulation at G1 phase at 300 nM (reference value: 64.99 to 67.86%).
For assay [17], the system named is MCF7. The assay can be described thus: Cell cycle arrest in human MCF7 cells assessed as accumulation at G1 phase at 300 nM (reference value: 47.47 to 52.3%).
The test system of assay [18] is MFE-296. Kind of assay: Cell cycle arrest in human MFE296 cells assessed as accumulation at S phase at 300 nM (reference value: 16.96 to 19.19%).

On to `CC(=O)O[C@H]1C(=O)[C@@]2(C)[C@H]([C@H](OC(=O)c3ccccc3)[C@]3(O)C[C@H](OC(=O)[C@H](O)[C@@H](NC(=O)c4ccccc4)c4ccccc4)C(C)=C1C3(C)C)[C@]1(OC(C)=O)CO[C@@H]1C[C@@H]2O` [PACLITAXEL], for which the Activity in the assay on PC-3 [1] was found to be 70.82%; in the assay with T47D [2] it was 27.89%; in the assay with A2780 [3], 13.37%; in the assay with A2780 [4], 70.7%; in the assay on MFE-280 [5], 39.59%; in the assay with A2780 [6], 10.42%. The Activity in the assay on PC-3 [7] amounted to 8.25%; in the assay on MCF7 [8], 7.07%; in the assay with T47D [9] it was 30.62%; in the assay with T47D [10], 41.49%; in the assay on MFE-280 [11], 22.1%; in the assay with MFE-296 [12], 26.72%. Further, the Activity in the assay with PC-3 [13] is 20.78%; in the assay on MCF7 [14], 86.54%; in the assay with MFE-296 [15], 51.88%; with MFE-280 [16], 34.74%; with MCF7 [17], 3.43%; in the assay with MFE-296 [18], 19.73%.
